In the NIST ThermoML archive (doi:10.1021/je060271a):
Several values for one entry are separate records, joined by “and”; a condition that tells them apart may be missing. Equal values may be shown once.

Settings: 303.15 K, Liquid, Vibrating tube method

CCCCCC(=O)OCC(COC(=O)CCCCC)(COC(=O)CCCCC)COC(=O)CCCCC [pentaerythritol tetrahexanoate]
Settings | mass density
8586.4 kPa | 993.8 kg/m3
8609.7 kPa | 993.8 kg/m3
8636.8 kPa | 993.8 kg/m3
8659.9 kPa | 993.9 kg/m3
8683.2 kPa | 993.9 kg/m3
8710.9 kPa | 993.9 kg/m3
8734.7 kPa | 993.9 kg/m3
8758.2 kPa | 993.9 kg/m3
8782.3 kPa | 993.9 kg/m3
8806.3 kPa | 994 kg/m3
8834.9 kPa | 994 kg/m3
8858 kPa | 993.9 kg/m3
8886.3 kPa | 994 kg/m3
8910.4 kPa | 994 kg/m3
8934.4 kPa | 994 kg/m3
8958.2 kPa | 994 kg/m3
8987 kPa | 993.9 kg/m3
9010.8 kPa | 994.1 kg/m3
9035.1 kPa | 994.1 kg/m3
9064.4 kPa | 994.1 kg/m3
9088.5 kPa | 994.1 kg/m3
9118.9 kPa | 994.2 kg/m3
9143 kPa | 994.1 kg/m3
9168.2 kPa | 994.3 kg/m3
9192.8 kPa | 994.1 kg/m3
9222.6 kPa | 994.1 kg/m3
9247.5 kPa | 994.2 kg/m3
9272.5 kPa | 994.3 kg/m3
9301.8 kPa | 994.2 kg/m3
9327.6 kPa | 994.2 kg/m3
9352.8 kPa | 994.4 kg/m3
9378.4 kPa | 994.3 kg/m3
9409.1 kPa | 994.3 kg/m3
9434.6 kPa | 994.3 kg/m3
9461.4 kPa | 994.4 kg/m3
9492.2 kPa | 994.3 kg/m3
9517.5 kPa | 994.3 kg/m3
9543.4 kPa | 994.4 kg/m3
9574.4 kPa | 994.4 kg/m3
9600.4 kPa | 994.5 kg/m3
9627 kPa | 994.4 kg/m3
9658 kPa | 994.6 kg/m3
9684.2 kPa | 994.6 kg/m3
9710.4 kPa | 994.5 kg/m3
9742.2 kPa | 994.4 kg/m3
9768.8 kPa | 994.5 kg/m3
9796.2 kPa | 994.6 kg/m3
9828.9 kPa | 994.6 kg/m3
9855.9 kPa | 994.7 kg/m3
9882.5 kPa | 994.6 kg/m3
9909.3 kPa | 994.6 kg/m3
9941.9 kPa | 994.6 kg/m3
9968.9 kPa | 994.7 kg/m3
9997 kPa | 994.7 kg/m3
10030 kPa | 994.7 kg/m3
10057 kPa | 994.7 kg/m3
10085 kPa | 994.7 kg/m3
10118 kPa | 994.7 kg/m3
10146 kPa | 994.8 kg/m3
10174 kPa | 994.8 kg/m3
10202 kPa | 994.8 kg/m3
10236 kPa | 994.8 kg/m3
10264 kPa | 994.8 kg/m3
10297 kPa | 994.8 kg/m3
10325 kPa | 994.9 kg/m3
10354 kPa | 994.8 kg/m3
10383 kPa | 994.8 kg/m3
10417 kPa | 994.9 kg/m3
10445 kPa | 994.9 kg/m3
10474 kPa | 995 kg/m3
10508 kPa | 994.9 kg/m3
10537 kPa | 994.9 kg/m3
10573 kPa | 995.1 kg/m3
11095 kPa | 995.5 kg/m3
11124 kPa | 995.3 kg/m3
11154 kPa | 995.4 kg/m3
11188 kPa | 995.3 kg/m3
11217 kPa | 995.4 kg/m3
11246 kPa | 995.5 kg/m3
11280 kPa | 995.5 kg/m3
11309 kPa | 995.4 kg/m3
11338 kPa | 995.5 kg/m3
11372 kPa | 995.5 kg/m3
11399 kPa | 995.6 kg/m3
11427 kPa | 995.6 kg/m3
11649 kPa | 995.6 kg/m3
11671 kPa | 995.7 kg/m3
11694 kPa | 995.7 kg/m3
11712 kPa | 995.7 kg/m3
11728 kPa | 995.6 kg/m3
11744 kPa | 995.7 kg/m3
11761 kPa | 995.7 kg/m3
11774 kPa | 995.7 kg/m3
11800 kPa | 995.8 kg/m3
11835 kPa | 995.8 kg/m3
11840 kPa | 995.9 kg/m3
11846 kPa | 995.8 kg/m3
11853 kPa | 995.9 kg/m3
11865 kPa | 995.8 kg/m3
11879 kPa | 995.9 kg/m3
11887 kPa | 995.8 kg/m3
11892 kPa | 995.9 kg/m3
11903 kPa | 995.8 kg/m3
11916 kPa | 995.8 kg/m3
11919 kPa | 995.9 kg/m3
11920 kPa | 995.9 kg/m3 and 995.8 kg/m3 and 995.7 kg/m3
11921 kPa | 995.9 kg/m3
11922 kPa | 995.8 kg/m3 and 995.9 kg/m3
11923 kPa | 995.8 kg/m3
12035 kPa | 995.9 kg/m3
12053 kPa | 996 kg/m3
12071 kPa | 995.9 kg/m3
12092 kPa | 995.9 kg/m3
12111 kPa | 995.9 kg/m3
12129 kPa | 996 kg/m3
12151 kPa | 996.1 kg/m3
12169 kPa | 996 kg/m3
12188 kPa | 995.9 kg/m3
12212 kPa | 996 kg/m3
12226 kPa | 996.1 kg/m3
12248 kPa | 996 kg/m3
12267 kPa | 996.1 kg/m3
12285 kPa | 996.1 kg/m3
12308 kPa | 996.1 kg/m3
12326 kPa | 996.1 kg/m3
12348 kPa | 996.1 kg/m3
12367 kPa | 996.1 kg/m3
12386 kPa | 996.2 kg/m3
12409 kPa | 996.2 kg/m3
12428 kPa | 996.2 kg/m3
12448 kPa | 996.1 kg/m3
12468 kPa | 996.2 kg/m3
12490 kPa | 996.3 kg/m3
12509 kPa | 996.3 kg/m3
12529 kPa | 996.2 kg/m3
12552 kPa | 996.3 kg/m3
12571 kPa | 996.1 kg/m3
12591 kPa | 996.2 kg/m3
12610 kPa | 996.3 kg/m3
12634 kPa | 996.3 kg/m3
12654 kPa | 996.2 kg/m3
12673 kPa | 996.3 kg/m3
12697 kPa | 996.4 kg/m3
12716 kPa | 996.4 kg/m3
12736 kPa | 996.4 kg/m3
